The values below come from ChEMBL document CHEMBL4265980, “Hemozoin inhibiting 2-phenylbenzimidazoles active against malaria parasites” (Eur J Med Chem, 2018).

Data set [1] is described as follows: Inhibition of beta hematin formation after 5 to 6 hrs by NP40 detergent-based assay.
Data set [2] relates to Plasmodium falciparum. The experiment in a line: Antiplasmodial activity against asexual erythrocyte stage of chloroquine-sensitive Plasmodium falciparum NF54 infected in human red blood cells after 48 hrs by lactate dehydrogenase assay. It counts as functional, organism-based. Conditions: for IC50: NF54, 48 h.
In data set [3] the test system is CHO. Nature of the data set: Cytotoxicity against CHO cells by MTT assay. The class given is cell-based. The note with it: Cricetulus griseus.
Data set [4] in a line: Selectivity index, ratio of IC50 for CHO cells to IC50 for asexual erythrocyte stage of chloroquine-sensitive Plasmodium falciparum NF54 infected in human red blood cells. The class given is toxicity, cell-based. Conditions: Chinese hamster, read-out: Ratio IC50.
For data set [5], the system named is Plasmodium falciparum. The experiment in a line: Antiplasmodial activity against asexual erythrocyte stage of chloroquine-resistant Plasmodium falciparum Dd2 infected in human red blood cells after 48 hrs by lactate dehydrogenase assay. It counts as functional, organism-based. The note with it: Dd2, 48 h.
In data set [6] the test system is Plasmodium falciparum. The experiment in a line: Antiplasmodial activity against Plasmodium falciparum NF54 assessed as increase in undigested hemoglobin levels after 32 hrs by spectrophotometric analysis. The class given is functional, organism-based.
The test system of data set [7] is Plasmodium falciparum. The experiment in a line: Antiplasmodial activity against Plasmodium falciparum NF54 assessed as decrease in hemozoin levels after 32 hrs by spectrophotometric analysis. The class given is functional, organism-based.
A short description of data set [8]: Selectivity index, ratio of IC50 for CHO cells to IC50 for asexual erythrocyte stage of chloroquine-resistant Plasmodium falciparum Dd2 infected in human red blood cells. It counts as toxicity, cell-based. Conditions: Chinese hamster, read-out: Ratio IC50.
Data set [9] in a line: Resistance index, ratio of IC50 for asexual erythrocyte stage of chloroquine-resistant Plasmodium falciparum Dd2 infected in human red blood cells to IC50 for asexual erythrocyte stage of chloroquine-sensitive Plasmodium falciparum NF54 infected in human red blood cells. The class given is functional.

Active and inactive are the calls of the source. No cut-off for these calls is given here.

For `O=C(Nc1ccc(-c2nc3ccccc3[nH]2)cc1)c1ccc[nH]1`, the 1/IC50 in data set [1] stood at 0.0215 µM⁻¹. Moreover, the IC50 in [1] was 46.6 µM; in [2] (read-out: IC50), 1.2 µM; in [2] (read-out: pIC50 (converted)) it was 1.2 µM.

Take `O=C(Nc1ccc(-c2nc3ccccc3[nH]2)cc1)c1cccs1`: the 1/IC50 in [1] was 0.0236 µM⁻¹. The IC50 was 42.4 µM in data set [1], 7.2 µM in [2] (read-out: IC50) and 7.24 µM in data set [2] (read-out: pIC50 (converted)).

In data set [1], `O=C(Nc1ccc(-c2nc3ccccc3[nH]2)cc1)c1cccc(Br)c1` came in with a 1/IC50 of 0.0408 µM⁻¹. The figures for the IC50 in [1], in [2] (read-out: IC50) and in [2] (read-out: pIC50 (converted)) were 24.5 µM, 1.3 µM and 1.29 µM, respectively.

In the case of `O=C(Nc1ccc(-c2nc3ccccc3[nH]2)cc1)c1cncc(Br)c1`, the IC50 is 189 µM in [3]; 0.96 µM in [5]; 32 µM in data set [1]; 0.41 µM in [2] (read-out: IC50); 0.407 µM in data set [2] (read-out: pIC50 (converted)). Also, the selectivity ratio in data set [4] worked out at 461; in data set [8] it was 197. Moreover, in [1], the 1/IC50 was 0.0313 µM⁻¹. The result in data set [6] and in [7] was Active. Moreover, in [9], the “Ratio IC50” value is reported as 2.4.

For the compound `O=C(Nc1ccc(-c2nc3ccccc3[nH]2)cc1)c1ccc(Cl)cc1`, the 1/IC50 in data set [1] is 0.0006 µM⁻¹. Besides, the values for the IC50 in [1], in data set [2] (read-out: IC50) and in data set [2] (read-out: pIC50 (converted)) were 1790 µM, 64 µM and 64.6 µM, respectively.

For the compound `O=C(Nc1ccc(-c2nc3ccccc3[nH]2)cc1)c1cc(Cl)nc(Cl)c1`, the IC50 is 184 µM in data set [3]; 0.34 µM in [5]; 16.8 µM in [1]; 0.53 µM in data set [2] (read-out: IC50); 0.525 µM in data set [2] (read-out: pIC50 (converted)). The values for the selectivity ratio in data set [4] and in data set [8] were 347 and 541, respectively. For the same compound, in data set [1], the 1/IC50 was found to be 0.0595 µM⁻¹. The “Ratio IC50” value in data set [9] is recorded as 0.64.

For the compound `CC(=O)Nc1ccc(-c2nc3ccccc3[nH]2)cc1`, the inhibition entry in [1] was “inactive”. Also, in data set [2], the outcome was inactive.

As for `O=C(Nc1ccc(-c2nc3ccccc3[nH]2)cc1)c1ccccc1[N+](=O)[O-]`, in data set [1], the 1/IC50 came to 0.0346 µM⁻¹. The IC50 was 28.9 µM in [1], 12.3 µM in data set [2] (read-out: IC50) and 12.3 µM in data set [2] (read-out: pIC50 (converted)).

Regarding `CC(C)(C)c1ccc(C(=O)Nc2ccc(-c3nc4ccccc4[nH]3)cc2)cc1`, the 1/IC50 in data set [1] is 0.0028 µM⁻¹. Besides, the IC50 is 358 µM in data set [1], 2 µM in data set [2] (read-out: IC50) and 2 µM in data set [2] (read-out: pIC50 (converted)).

In the case of `CNC(=O)c1cncc(Br)c1`, in data set [1], the inhibition entry was “inactive”. In addition, the outcome in data set [2] was inactive.

Take `O=C(Nc1ccc(-c2nc3ccccc3[nH]2)cc1)c1ccccc1Cl`: the 1/IC50 in data set [1] was 0.0262 µM⁻¹. In addition, the values for the IC50 in data set [1], in data set [2] (read-out: IC50) and in [2] (read-out: pIC50 (converted)) were 38.2 µM, 15 µM and 15.1 µM, respectively.

For the compound `Nc1ccc(-c2nc3ccccc3[nH]2)cc1`, the inhibition result in data set [1] was “inactive”. In addition, the outcome in [2] was inactive.

In data set [1], `O=C(Nc1ccc(-c2nc3ccccc3[nH]2)cc1)c1cccc(C(F)(F)F)c1` displayed a 1/IC50 of 0.0356 µM⁻¹. The IC50 was 28.1 µM in data set [1], 1.34 µM in data set [2] (read-out: IC50) and 1.35 µM in data set [2] (read-out: pIC50 (converted)).

The compound `O=C(Nc1ccc(-c2nc3ccccc3[nH]2)cc1)c1ccc(Cl)cc1Cl` had a 1/IC50 in [1] of 0.0111 µM⁻¹. The IC50 was 90 µM in [1], 7.2 µM in data set [2] (read-out: IC50) and 7.24 µM in data set [2] (read-out: pIC50 (converted)).

In [1], `O=C(Nc1ccc(-c2nc3ccccc3[nH]2)cc1)c1ccccc1` yielded a 1/IC50 of 0.0003 µM⁻¹ and an IC50 of 3900 µM. In addition, the IC50 in data set [2] (read-out: pIC50 (converted)) was 257 µM.

In data set [1], `O=C(Nc1ccc(-c2nc3ccccc3[nH]2)cc1)c1cccc(Cl)c1` showed a 1/IC50 of 0.0398 µM⁻¹. In addition, the results for the IC50 in [1], in [2] (read-out: IC50) and in [2] (read-out: pIC50 (converted)) were 25.1 µM, 1.21 µM and 1.2 µM, respectively.

Consider `O=C(Nc1ccc(-c2nc3ccccc3[nH]2)cc1)c1cc([N+](=O)[O-])cc([N+](=O)[O-])c1`, for which the IC50 in data set [3] was 206 µM; in data set [5], 0.31 µM; in data set [1], 13.3 µM; in [2] (read-out: IC50), 0.67 µM; in [2] (read-out: pIC50 (converted)), 0.676 µM. Further, the selectivity ratio stood at 308 in data set [4] and 665 in data set [8]. Further, the 1/IC50 in data set [1] came out at 0.0752 µM⁻¹. For the same compound, the “Ratio IC50” value in [9] is 0.46.

With `O=C(Nc1ccccc1)c1cncc(Br)c1`, the inhibition entry in data set [1] is “inactive”. Further, the result in data set [2] was inactive.

In the case of `O=C(O)c1cncc(Br)c1`, the inhibition entry in data set [1] is “inactive”. The result in data set [2] was inactive.

Take `CC[C@H]1CN2CCc3cc(OC)c(OC)cc3[C@@H]2C[C@@H]1C[C@H]1NCCc2cc(OC)c(OC)cc21` [EMETINE]: the IC50 in data set [3] is 0.12 µM.

In turn, `COc1ccccc1C(=O)Nc1ccc(-c2nc3ccccc3[nH]2)cc1` registered a 1/IC50 in [1] of 0.0257 µM⁻¹. Besides, the IC50 in [1] was 38.9 µM; in data set [2] (read-out: IC50), 5.5 µM; in data set [2] (read-out: pIC50 (converted)) it was 5.5 µM.

Consider `O=C(Nc1ccc(-c2nc3ccccc3[nH]2)cc1)c1cccnc1`, for which, in data set [1], the 1/IC50 came to 0.0281 µM⁻¹. The IC50 in data set [1] is 35.6 µM; in data set [2] (read-out: IC50), 11.6 µM; in data set [2] (read-out: pIC50 (converted)), 11.5 µM.

`O=C(Nc1ccc(-c2nc3ccccc3[nH]2)cc1)c1ccco1`: the 1/IC50 in [1] came to 0.0119 µM⁻¹. Further, the figures for the IC50 in data set [1], in data set [2] (read-out: IC50) and in data set [2] (read-out: pIC50 (converted)) were 84.1 µM, 5.9 µM and 5.89 µM, respectively.

In the case of `c1ccc2[nH]cnc2c1`, the inhibition result in data set [1] was “inactive”. Besides, the outcome in data set [2] was inactive.

As for `CC(=O)Nc1ccccc1`, the inhibition entry in data set [1] was “inactive”. The outcome in data set [2] was inactive.

Take `O=C(Nc1ccc(-c2nc3ccccc3[nH]2)cc1)c1cncc(C(F)(F)F)c1`: the IC50 in [3] was 35 µM; in data set [5], 1.1 µM; in data set [1], 16.6 µM; in data set [2] (read-out: IC50), 0.8 µM; in [2] (read-out: pIC50 (converted)), 0.794 µM. The selectivity ratio in data set [4] turned out to be 44; in data set [8] it was 32. The same compound came in with a 1/IC50 in [1] of 0.0602 µM⁻¹. Also, in data set [9], the “Ratio IC50” value amounted to 1.4.
